Values after ≈ are worked out from the molar mass of the structure shown.
Tested on: M. tuberculosis XDR-1 (XDR- strain)
Assay: microbe, parasite or virus in culture
Type: cell-based, Mycobacterium tuberculosis
Details: Mycobacterium tuberculosis, 504 h

Structure (SMILES) | MIC [µg/mL]
NNC(=O)c1ccncc1 [Isoniazid, reference compound] | 0.5 (≈ 3.65 µM)
C=C/C(C)=C/[C@@]1(C)SC(=O)C(C)=C1O [Thiolactomycin, reference compound] | 25 (≈ 119 µM)

Tested on: M. tuberculosis -617 (MDR- strain)
Assay: microbe, parasite or virus in culture
Type: cell-based, Mycobacterium tuberculosis
Details: Mycobacterium tuberculosis, 504 h

Structure (SMILES) | MIC [µg/mL]
NNC(=O)c1ccncc1 [Isoniazid, reference compound] | 128 (≈ 933 µM)
C=C/C(C)=C/[C@@]1(C)SC(=O)C(C)=C1O [Thiolactomycin, reference compound] | 25 (≈ 119 µM)

Tested on: M. tuberculosis H37Rv (ATCC 27294)
Assay: MIC determination by broth dilution against M. tuberculosis H37Rv
Type: cell-based, Mycobacterium tuberculosis
Details: M. tuberculosis H37Rv, broth dilution, 3 weeks at 37° C., read visually (no turbidity)

Structure (SMILES) | MIC [µg/mL]
CC1=C(OCCCCCN2CCN(c3ccnc4cc(C(F)(F)F)ccc34)CC2)C(C)SC1=O (stereo not drawn) [Compound 3a, 3,5-dimethyl-4-[(5-4-[7-(trifluoromethyl)-4-quinolyl]piperazinopentyl)oxy]-5H-thiophen-2-one] | 16 (≈ 32.4 µM)
CC1=C(OCCCCCCN2CCN(c3ccnc4cc(C(F)(F)F)ccc34)CC2)C(C)SC1=O (stereo not drawn) [Compound 3b, 3,5-dimethyl-4-[(6-4-[7-(trifluoromethyl)-4-quinolyl]piperazinohexyl)oxy]-5H-thiophen-2-one] | 16 (≈ 31.5 µM)
CC1=C(OCCCCCCCCN2CCN(c3ccnc4cc(C(F)(F)F)ccc34)CC2)C(C)SC1=O (stereo not drawn) [Compound 3c, 3,5-dimethyl-4-[(8-4-[7-(trifluoromethyl)-4-quinolyl]piperazinooctyl)oxy]-5H-thiophen-2-one] | 16 (≈ 29.9 µM)
CC1=C(OCCCCCCCCCN2CCN(c3ccnc4cc(C(F)(F)F)ccc34)CC2)C(C)SC1=O (stereo not drawn) [Compound 3d, 3,5-dimethyl-4-[(9-4-[7-(trifluoromethyl)-4-quinolyl]piperazinononyl)oxy]-5H-thiophen-2-one] | 16 (≈ 29.1 µM)
CC1=C(OCCCCCCCCCCN2CCN(c3ccnc4cc(C(F)(F)F)ccc34)CC2)C(C)SC1=O (stereo not drawn) [Compound 3e, 3,5-dimethyl-4-[(10-4-[7-(trifluoromethyl)-4-quinolyl]piperazinodecyl)oxy]-5H-thiophen-2-one] | 16 (≈ 28.4 µM)
CC1=C(OCCCCCN2CCCN(c3ccnc4cc(C(F)(F)F)ccc34)CC2)C(C)SC1=O (stereo not drawn) [Compound 5a, 3,5-dimethyl-4-[(5-4-[7-(trifluoromethyl)-4-quinolyl]-1,4-diazepan-1-ylpentyl)oxy]-5H-thiophen-2-one] | 16 (≈ 31.5 µM)
CC1=C(OCCCCCCN2CCCN(c3ccnc4cc(C(F)(F)F)ccc34)CC2)C(C)SC1=O (stereo not drawn) [Compound 5b, 3,5-dimethyl-4-[(6-4-[7-(trifluoromethyl)-4-quinolyl]-1,4-diazepan-1-ylhexyl)oxy]-5H-thiophen-2-one] | 16 (≈ 30.7 µM)
CC1=C(OCCCCCCCCN2CCCN(c3ccnc4cc(C(F)(F)F)ccc34)CC2)C(C)SC1=O (stereo not drawn) [Compound 5c, 3,5-dimethyl-4-[(8-4-[7-(trifluoromethyl)-4-quinolyl]-1,4-diazepan-1-yloctyl)oxy]-5H-thiophen-2-one] | 16 (≈ 29.1 µM)
CC1=C(OCCCCCCCCCN2CCCN(c3ccnc4cc(C(F)(F)F)ccc34)CC2)C(C)SC1=O (stereo not drawn) [Compound 5d, 3,5-dimethyl-4-[(9-4-[7-(trifluoromethyl)-4-quinolyl]-1,4-diazepan-1-ylnonyl)oxy]-5H-thiophen-2-one] | 16 (≈ 28.4 µM)
CC1=C(OCCCCCCCCCCN2CCCN(c3ccnc4cc(C(F)(F)F)ccc34)CC2)C(C)SC1=O (stereo not drawn) [Compound 5e, 3,5-dimethyl-4-[(10-4-[7-(trifluoromethyl)-4-quinolyl]-1,4-diazepan-1-yldecyl)oxy]-5H-thiophen-2-one] | 8 (≈ 13.8 µM)
CC1=C(OCCCCCCCCCCCCN2CCCN(c3ccnc4cc(C(F)(F)F)ccc34)CC2)C(C)SC1=O (stereo not drawn) [Compound 5f, 3,5-dimethyl-4-[(12-4-[7-(trifluoromethyl)-4-quinolyl]-1,4-diazepan-1-yldodecyl)oxy]-5H-thiophen-2-one] | 8 (≈ 13.2 µM)
C=C/C(C)=C/[C@@]1(C)SC(=O)C(C)=C1O [Thiolactomycin, reference compound] | 25 (≈ 119 µM)

Same assay, conditions: Mycobacterium tuberculosis, 504 h; M. tuberculosis H37Rv, broth dilution, 3 weeks at 37° C., read visually (no turbidity); read-out: MIC

Structure (SMILES) | MIC [µg/mL]
CC1=C(OCCCCCN2CCN(c3ccnc4cc(Cl)ccc34)CC2)C(C)SC1=O (stereo not drawn) [Compound 4a, 3,5-dimethyl-4-(5-[4-(7-chloro-4-quinolyl)piperazino]pentyloxy)-5H-thiophen-2-one] | 16 (≈ 34.8 µM)
CC1=C(OCCCCCCN2CCN(c3ccnc4cc(Cl)ccc34)CC2)C(C)SC1=O (stereo not drawn) [Compound 4b, 3,5-dimethyl-4-(6-[4-(7-chloro-4-quinolyl)piperazino]hexyloxy)-5H-thiophen-2-one] | 16 (≈ 33.8 µM)
CC1=C(OCCCCCCCCN2CCN(c3ccnc4cc(Cl)ccc34)CC2)C(C)SC1=O (stereo not drawn) [Compound 4c, 3,5-dimethyl-4-(8-[4-(7-chloro-4-quinolyl)piperazino]octyloxy)-5H-thiophen-2-one] | 8 (≈ 15.9 µM)
CC1=C(OCCCCCCCCCN2CCN(c3ccnc4cc(Cl)ccc34)CC2)C(C)SC1=O (stereo not drawn) [Compound 4d, 3,5-dimethyl-4-(9-[4-(7-chloro-4-quinolyl)piperazino]nonyloxy)-5H-thiophen-2-one] | 8 (≈ 15.5 µM)
CC1=C(OCCCCCCCCCCN2CCN(c3ccnc4cc(Cl)ccc34)CC2)C(C)SC1=O (stereo not drawn) [Compound 4e, 3,5-dimethyl-4-(10-[4-(7-chloro-4-quinolyl)piperazino]decyloxy)-5H-thiophen-2-one] | 8 (≈ 15.1 µM)
CC1=C(OCCCCCCCCCCCCN2CCN(c3ccnc4cc(Cl)ccc34)CC2)C(C)SC1=O (stereo not drawn) [Compound 4f, 3,5-dimethyl-4-(12-[4-(7-chloro-4-quinolyl)piperazino]dodecyloxy)-5H-thiophen-2-one] | 8 (≈ 14.3 µM)
CC1=C(OCCCCCN2CCCN(c3ccnc4cc(Cl)ccc34)CC2)C(C)SC1=O (stereo not drawn) [Compound 6a, 3,5-dimethyl-4-(5-[4-(7-chloro-4-quinolyl)-1,4-diazepan-1-yl]pentyloxy)-5H-thiophen-2-one] | 16 (≈ 33.8 µM)
CC1=C(OCCCCCCN2CCCN(c3ccnc4cc(Cl)ccc34)CC2)C(C)SC1=O (stereo not drawn) [Compound 6b, 3,5-dimethyl-4-(6-[4-(7-chloro-4-quinolyl)-1,4-diazepan-1-yl]hexyloxy)-5H-thiophen-2-one] | 8 (≈ 16.4 µM)
CC1=C(OCCCCCCCCN2CCCN(c3ccnc4cc(Cl)ccc34)CC2)C(C)SC1=O (stereo not drawn) [Compound 6c, 3,5-dimethyl-4-(8-[4-(7-chloro-4-quinolyl)-1,4-diazepan-1-yl]octyloxy)-5H-thiophen-2-one] | 16 (≈ 31 µM)
CC1=C(OCCCCCCCCCN2CCCN(c3ccnc4cc(Cl)ccc34)CC2)C(C)SC1=O (stereo not drawn) [Compound 6d, 3,5-dimethyl-4-(9-[4-(7-chloro-4-quinolyl)-1,4-diazepan-1-yl]nonyloxy)-5H-thiophen-2-one] | 8 (≈ 15.1 µM)
CC1=C(OCCCCCCCCCCN2CCCN(c3ccnc4cc(Cl)ccc34)CC2)C(C)SC1=O (stereo not drawn) [Compound 6e, 3,5-dimethyl-4-(10-[4-(7-chloro-4-quinolyl)-1,4-diazepan-1-yl]decyloxy)-5H-thiophen-2-one] | 16 (≈ 29.4 µM)
CC1=C(OCCCCCCCCCCCCN2CCCN(c3ccnc4cc(Cl)ccc34)CC2)C(C)SC1=O (stereo not drawn) [Compound 6f, 3,5-dimethyl-4-(12-[4-(7-chloro-4-quinolyl)-1,4-diazepan-1-yl]dodecyloxy)-5H-thiophen-2-one] | 4 (≈ 6.99 µM)
NNC(=O)c1ccncc1 [Isoniazid, reference compound] | 0.5 (≈ 3.65 µM)
C=C/C(C)=C/[C@@]1(C)SC(=O)C(C)=C1O [Thiolactomycin, reference compound] | 25 (≈ 119 µM)

From patent US9085557B2, “Quinolylpiperazino substituted thiolactone compounds and process for the preparation thereof” (Council of Scientific and Industrial Research, priority 2010, dated 2015)
